The assay deals with PC3 cells. Nature of the assay: NAMPT Cell Proliferation Assay. The format is cell-based. The following applies: Homo sapiens, PC-3, 120 h, 5 days incubation, cell viability by Cell Titer Glo. On the procedure:
NAMPT Cell Proliferation Assay
PC3 cells were seeded in 96-well black plates (Corning #3904) at 500 cells)Owell in 90 µl of RPMI media containing 10% heat-inactivated FBS and incubated overnight at 37° C. and 5% CO2 to allow cells to attach to wells. The following day, test compounds were serially diluted in neat DMSO to 1000× final concentrations prior to dilution with RPMI media to 10× and 1% DMSO. […] of the 10× compounds were then transferred to wells containing cells to produce a dose response of 10-fold dilutions from […] to 1×10^−[…]. Cells were incubated for 5 days at 37° C. and 5% CO2, then cell viability was measured using Cell Titer Glo reagent (Promega #G7571). Percent inhibition values were calculated and fitted to a sigmoidal dose response curves using Assay Explorer software to determine IC50s.

Some results are limits rather than exact numbers.

With `O=C(Nc1ccc(OC2CCN(C(=O)CC3CCOCC3)CC2)cc1)C1CN(c2cccnc2)C1` [Example 1, 1-(pyridin-3-yl)-N-(4-{[1-(tetrahydro-2H-pyran-4-ylacetyl)piperidin-4-yl]oxy}phenyl)azetidine-3-carboxamide], the IC50 amounted to 6.56 nM. With `CC(C)(O)C(=O)N1CCC(c2ccc(NC(=O)C3CN(c4cccnc4C#N)C3)cc2)CC1` [Example 2, 1-(2-cyanopyridin-3-yl)-N-{4-[1-(2-hydroxy-2-methylpropanoyl)piperidin-4-yl]phenyl}azetidine-3-carboxamide] the figure was greater than 10000 nM. Regarding `O=C(Nc1ccc(OC2CCN(C(=O)CC3CCOCC3)CC2)cc1)C1CN(c2cccnc2C(F)(F)F)C1` [Example 3, N-(4-{[1-(tetrahydro-2H-pyran-4-ylacetyl)piperidin-4-yl]oxy}phenyl)-1-[2-(trifluoromethyl)pyridin-3-yl]azetidine-3-carboxamide], the IC50 amounted to 7330 nM. The value for `Cc1ncccc1N1CC(C(=O)Nc2ccc(OC3CCN(C(=O)CC4CCOCC4)CC3)cc2)C1` [Example 4, 1-(2-methylpyridin-3-yl)-N-(4-{[1-(tetrahydro-2H-pyran-4-ylacetyl)piperidin-4-yl]oxy}phenyl)azetidine-3-carboxamide] was 112 nM. `Cc1ccncc1N1CC(C(=O)Nc2ccc(OC3CCN(C(=O)CC4CCOCC4)CC3)cc2)C1` [Example 5, 1-(4-methylpyridin-3-yl)-N-(4-{[1-(tetrahydro-2H-pyran-4-ylacetyl)piperidin-4-yl]oxy}phenyl)azetidine-3-carboxamide] displayed an IC50 of 6.75 nM. `O=C(Nc1ccc(OC2CCN(C(=O)CC3CCOCC3)CC2)cc1)C1CN(c2cnccc2F)C1` [Example 6, 1-(4-fluoropyridin-3-yl)-N-(4-{[1-(tetrahydro-2H-pyran-4-ylacetyl)piperidin-4-yl]oxy}phenyl)azetidine-3-carboxamide]: inhibition was half-maximal at 67.7 nM (IC50).

For `O=C(Nc1ccc(OC2CCN(C(=O)CC3CCOCC3)CC2)cc1)C1CN(c2cnccc2C(F)(F)F)C1` [Example 7, N-(4-{[1-(tetrahydro-2H-pyran-4-ylacetyl)piperidin-4-yl]oxy}phenyl)-1-[4-(trifluoromethyl)pyridin-3-yl]azetidine-3-carboxamide], the IC50 was determined as 876 nM. `CC(C)(C)OC(=O)N1CCC(Oc2ccc(NC(=O)[C@H]3CCN(c4cccnc4)C3)cc2)CC1` [Example 8, tert-butyl 4-[4-({[(3S)-1-(pyridin-3-yl)pyrrolidin-3-yl]carbonyl}amino)phenoxy]piperidine-1-carboxylate] gave an IC50 of 70.8 nM. Compound `CC(C)(C)OC(=O)N1CCC(Oc2ccc(NC(=O)[C@@H]3CCN(c4cccnc4)C3)cc2)CC1` [Example 9, tert-butyl 4-[4-({[(3R)-1-(pyridin-3-yl)pyrrolidin-3-yl]carbonyl}amino)phenoxy]piperidine-1-carboxylate] gave an IC50 of 739 nM. This IC50 is about 10-fold higher than that of the compound before. `O=C(Nc1ccc(C2CCN(C(=O)[C@@H]3CCCO3)CC2)cc1)C1CN(c2cccnc2)C1` [Example 10, 1-(pyridin-3-yl)-N-(4-{1-[(2S)-tetrahydrofuran-2-ylcarbonyl]piperidin-4-yl}phenyl)azetidine-3-carboxamide] registered an IC50 of 1.84 nM. This IC50 is about 400-fold lower than that of the compound before. `O=C(Nc1ccc(OC2CCN(C(=O)CC3CCOCC3)CC2)cc1)[C@H]1CCN(c2cccnc2)C1` [Example 11, (3S)-1-(pyridin-3-yl)-N-(4-{[1-(tetrahydro-2H-pyran-4-ylacetyl)piperidin-4-yl]oxy}phenyl)pyrrolidine-3-carboxamide] gave an IC50 of 22.7 nM. As for `CC(C)C(=O)N1CCC(Oc2ccc(NC(=O)[C@H]3CCN(c4cccnc4)C3)cc2)CC1` [Example 12, (3S)-N-(4-{[1-(2-methylpropanoyl)piperidin-4-yl]oxy}phenyl)-1-(pyridin-3-yl)pyrrolidine-3-carboxamide], it took 84.4 nM to reach half-maximal inhibition (IC50). In turn, `O=C(Nc1ccc(OC2CCN(C(=O)[C@@H]3CCCO3)CC2)cc1)[C@H]1CCN(c2cccnc2)C1` [Example 13, (3S)-1-(pyridin-3-yl)-N-[4-({1-[(2S)-tetrahydrofuran-2-ylcarbonyl]piperidin-4-yl}oxy)phenyl]pyrrolidine-3-carboxamide] returned an IC50 of 79.1 nM. The compound `O=C(Nc1ccc(OC2CCN(C(=O)[C@H]3CCCO3)CC2)cc1)[C@H]1CCN(c2cccnc2)C1` [Example 14, (3S)-1-(pyridin-3-yl)-N-[4-({1-[(2R)-tetrahydrofuran-2-ylcarbonyl]piperidin-4-yl}oxy)phenyl]pyrrolidine-3-carboxamide] displayed an IC50 of 54.8 nM. On to `O=C(Nc1ccc(OC2CCN(C(=O)C3CCOC3)CC2)cc1)[C@H]1CCN(c2cccnc2)C1` (stereo partly drawn) [Example 15, (3S)-1-(pyridin-3-yl)-N-(4-{[1-(tetrahydrofuran-3-ylcarbonyl)piperidin-4-yl]oxy}phenyl)pyrrolidine-3-carboxamide], for which the IC50 came out at 34.7 nM. In turn, `O=C(Nc1ccc(OC2CCN(C(=O)CC3CC3)CC2)cc1)[C@H]1CCN(c2cccnc2)C1` [Example 16, (3S)-N-(4-{[1-(cyclopropylacetyl)piperidin-4-yl]oxy}phenyl)-1-(pyridin-3-yl)pyrrolidine-3-carboxamide] came in with an IC50 of 92.6 nM. Regarding `CC(C)(O)C(=O)N1CCC(Oc2ccc(NC(=O)[C@H]3CCN(c4cccnc4)C3)cc2)CC1` [Example 17, (3S)-N-(4-{[1-(2-hydroxy-2-methylpropanoyl)piperidin-4-yl]oxy}phenyl)-1-(pyridin-3-yl)pyrrolidine-3-carboxamide], the IC50 is 93.7 nM.

On to `O=C(Nc1ccc(OC2CCN(C(=O)CC(F)(F)F)CC2)cc1)[C@H]1CCN(c2cccnc2)C1` [Example 18, (3S)-1-(pyridin-3-yl)-N-(4-{[1-(3,3,3-trifluoropropanoyl)piperidin-4-yl]oxy}phenyl)pyrrolidine-3-carboxamide], for which the IC50 was 148 nM. `CC[C@H](C)C(=O)N1CCC(Oc2ccc(NC(=O)[C@H]3CCN(c4cccnc4)C3)cc2)CC1` [Example 19, (3S)-N-[4-({1-[(2S)-2-methylbutanoyl]piperidin-4-yl}oxy)phenyl]-1-(pyridin-3-yl)pyrrolidine-3-carboxamide] yielded a 50% inhibitory concentration (IC50) of 56.4 nM. The compound `CC(C)(O)C(=O)N1CCC(c2ccc(NC(=O)C3CN(c4cccnc4)C3)cc2)CC1` [Example 20, N-{4-[1-(2-hydroxy-2-methylpropanoyl)piperidin-4-yl]phenyl}-1-(pyridin-3-yl)azetidine-3-carboxamide] displayed a half-inhibitory concentration (IC50) of 0.28 nM. Turning to `O=C(NC1CN(c2cccnc2)C1)c1ccc(OC2CCN(C(=O)CC3CCOCC3)CC2)cc1` [Example 21, N-[1-(pyridin-3-yl)azetidin-3-yl]-4-{[1-(tetrahydro-2H-pyran-4-ylacetyl)piperidin-4-yl]oxy}benzamide], the half-inhibitory concentration (IC50) worked out at 150 nM. `CC[C@H](C)C(=O)N1CCC(c2ccc(NC(=O)C3CN(c4cccnc4)C3)cc2)CC1` [Example 22, N-(4-{1-[(2S)-2-methylbutanoyl]piperidin-4-yl}phenyl)-1-(pyridin-3-yl)azetidine-3-carboxamide] gave an IC50 of 1.25 nM. As to `CC[C@H](C)C(=O)N1CCC(Oc2ccc(C(=O)NC3CN(c4cccnc4)C3)cc2)CC1` [Example 23, 4-({1-[(2S)-2-methylbutanoyl]piperidin-4-yl}oxy)-N-[1-(pyridin-3-yl)azetidin-3-yl]benzamide], inhibition was half-maximal at 72.5 nM (IC50). This IC50 is about 58-fold higher than that of the compound before.

On to `CC(C)(O)C(=O)N1CCC(Oc2ccc(C(=O)NC3CN(c4cccnc4)C3)cc2)CC1` [Example 24, 4-{[1-(2-hydroxy-2-methylpropanoyl)piperidin-4-yl]oxy}-N-[1-(pyridin-3-yl)azetidin-3-yl]benzamide], for which it took 169 nM to reach half-maximal inhibition (IC50). Against the preceding compound, the IC50 is about 2.3-fold higher. As for `O=C(Nc1ccc(C2CCN(C(=O)CC3CCOCC3)CC2)cc1)C1CN(c2cccnc2)C1` [Example 25, 1-(pyridin-3-yl)-N-{4-[1-(tetrahydro-2H-pyran-4-ylacetyl)piperidin-4-yl]phenyl}azetidine-3-carboxamide], the IC50 amounted to 1.41 nM. Compound `O=C(Nc1ccc(C2CCN(C(=O)c3ccccc3)CC2)cc1)C1CN(c2cccnc2)C1` [Example 26, N-[4-(1-benzoylpiperidin-4-yl)phenyl]-1-(pyridin-3-yl)azetidine-3-carboxamide] had an IC50 of 0.682 nM. Compared with the last compound, the IC50 is about 2.1-fold lower. Compound `CC(C)(C)OC(=O)N1CCC(Oc2ccc(C(=O)N[C@H]3CCN(c4cccnc4)C3)cc2)CC1` [Example 27, tert-butyl 4-(4-{[(3S)-1-(pyridin-3-yl)pyrrolidin-3-yl]carbamoyl}phenoxy)piperidine-1-carboxylate] came in with an IC50 greater than 10000 nM. With `CC(C)(C)OC(=O)N1CCC(Oc2ccc(C(=O)N[C@@H]3CCN(c4cccnc4)C3)cc2)CC1` [Example 28, tert-butyl 4-(4-{[(3R)-1-(pyridin-3-yl)pyrrolidin-3-yl]carbamoyl}phenoxy)piperidine-1-carboxylate], the IC50 is greater than 10000 nM.

Regarding `Cc1ncccc1N1CC(C(=O)Nc2ccc(C3CCN(C(=O)C(C)C)CC3)cc2)C1` [Example 29, N-{4-[1-(2-methylpropanoyl)piperidin-4-yl]phenyl}-1-(2-methylpyridin-3-yl)azetidine-3-carboxamide], half-maximal inhibition (IC50) was put at 135 nM. In turn, `CC(C)C(=O)N1CCC(c2ccc(NC(=O)C3CN(c4cccnc4)C3)cc2)CC1` [Example 30, N-{4-[1-(2-methylpropanoyl)piperidin-4-yl]phenyl}-1-(pyridin-3-yl)azetidine-3-carboxamide] came in with a concentration for half-maximal inhibition (IC50) of 1.97 nM. The compound `CC(C)(O)C(=O)N1CCC(Oc2ccc(NC(=O)C3CN(c4cccnc4)C3)cc2)CC1` [Example 31, N-(4-{[1-(2-hydroxy-2-methylpropanoyl)piperidin-4-yl]oxy}phenyl)-1-(pyridin-3-yl)azetidine-3-carboxamide] displayed a half-inhibitory concentration (IC50) of 6.9 nM.

Source of the values: patent publication US20130303509A1, “NAMPT INHIBITORS” (AbbVie Inc., priority 2012, published 2013).
